Here are results for 2 compounds from ChEMBL document CHEMBL4138123, “Design, synthesis and biological evaluation of novel pyrazolochalcones as potential modulators of PI3K/Akt/mTOR pathway and inducers of apoptosis in breast cancer cells” (Eur J Med Chem, 2017).

Bounds are passed on as bounds.

For one experiment, the system named is HCT-15. The experiment in a line: Cytotoxicity against human HCT15 cells assessed as growth inhibition after 48 hrs by sulforhodamine B assay. In kind it is functional. Particulars: HCT-15, 48 h.
In the next experiment the test system is NCI-H322M. The experiment in a line: Cytotoxicity against human NCI-H322M cells assessed as growth inhibition after 48 hrs by sulforhodamine B assay. The format is functional.
Experiment [1] concerns HCC 2998. The experiment in a line: Cytotoxicity against human HCC2998 cells assessed as growth inhibition after 48 hrs by sulforhodamine B assay. The format is functional. Particulars: HCC 2998, 48 h.
For experiment [2], the system named is MDA-MB-231. The experiment in a line: Cytotoxicity against human MDA-MB-231 cells assessed as growth inhibition after 48 hrs by MTT assay. In kind it is functional, cell-based. Particulars: MDA-MB-231, 48 h.
The next experiment concerns MDA-MB-435. The experiment in a line: Cytotoxicity against human MDA-MB-435 cells assessed as growth inhibition after 48 hrs by sulforhodamine B assay. In kind it is functional. Particulars: MDA-MB-435, 48 h.
The next experiment relates to SW-620. The experiment in a line: Cytotoxicity against human SW620 cells assessed as growth inhibition after 48 hrs by sulforhodamine B assay. The format is functional. The note with it: SW-620, 48 h.
For the next experiment, the system named is SK-MEL-5. The experiment in a line: Cytotoxicity against human SK-MEL-5 cells assessed as cell growth at 10 uM after 48 hrs by sulforhodamine B assay relative to control. The format is functional. Particulars: SK-MEL-5, 48 h, read-out: Activity.
A further experiment concerns MOLT-4. The experiment in a line: Cytotoxicity against human MOLT4 cells assessed as cell growth at 10 uM after 48 hrs by sulforhodamine B assay relative to control. The format is functional. The note with it: MOLT-4, 48 h, read-out: Activity.
A further experiment concerns HL-60(TB). The experiment in a line: Cytotoxicity against human HL-60(TB) cells assessed as cell growth at 10 uM after 48 hrs by sulforhodamine B assay relative to control. Particulars: HL-60, 48 h, read-out: Activity. In kind it is functional.
The test system of the next experiment is TK-10. The experiment in a line: Cytotoxicity against human TK10 cells assessed as cell growth at 100 uM after 48 hrs by sulforhodamine B assay relative to control. In kind it is functional. Particulars: TK-10, 48 h, read-out: Activity.
In a further experiment the test system is OVCAR-5. The experiment in a line: Cytotoxicity against human OVCAR5 cells assessed as cell growth at 100 uM after 48 hrs by sulforhodamine B assay relative to control. In kind it is functional. Particulars: OVCAR-5, 48 h, read-out: Activity.
In a further experiment the test system is 786-0. The experiment in a line: Cytotoxicity against human 786-0 cells assessed as cell growth at 100 uM after 48 hrs by sulforhodamine B assay relative to control. The format is functional. The note with it: 786-0, 48 h, read-out: Activity.
The test system of a further experiment is OVCAR-4. The experiment in a line: Cytotoxicity against human OVCAR4 cells assessed as cell growth at 10 uM after 48 hrs by sulforhodamine B assay relative to control. In kind it is functional. The note with it: OVCAR-4, 48 h, read-out: Activity.
Another experiment deals with RXF 393. The experiment in a line: Cytotoxicity against human RXF393 cells assessed as cell growth at 10 uM after 48 hrs by sulforhodamine B assay relative to control. The format is functional. Particulars: RXF 393, 48 h, read-out: Activity.
For a further experiment, the system named is KM12. The experiment in a line: Cytotoxicity against human KM12 cells assessed as cell growth at 100 uM after 48 hrs by sulforhodamine B assay relative to control. Particulars: KM12, 48 h, read-out: Activity. In kind it is functional.
A further experiment has as its system SK-OV-3. The experiment in a line: Cytotoxicity against human SKOV3 cells assessed as cell growth at 1 uM after 48 hrs by sulforhodamine B assay relative to control. The note with it: SK-OV-3, 48 h, read-out: Activity. In kind it is functional.
Another experiment deals with Malme-3M. The experiment in a line: Cytotoxicity against human MALME-3M cells assessed as cell growth at 1 uM after 48 hrs by sulforhodamine B assay relative to control. The format is functional. Particulars: read-out: Activity.
The test system of experiment [3] is NCI-H23. The experiment in a line: Cytotoxicity against human NCI-H23 cells assessed as cell growth at 1 uM after 48 hrs by sulforhodamine B assay relative to control. The format is functional. Particulars: NCI-H23, 48 h, read-out: Activity.
In experiment [4] the test system is NCI-H23. The experiment in a line: Cytotoxicity against human NCI-H23 cells assessed as cell growth at 100 uM after 48 hrs by sulforhodamine B assay relative to control. In kind it is functional. The note with it: NCI-H23, 48 h, read-out: Activity.
The subject of experiment [5] is SF-268. The experiment in a line: Cytotoxicity against human SF268 cells assessed as cell growth at 0.1 uM after 48 hrs by sulforhodamine B assay relative to control. The note with it: SF-268, 48 h, read-out: Activity. In kind it is functional.
The test system of experiment [6] is M14. The experiment in a line: Cytotoxicity against human M14 cells assessed as cell growth at 0.1 uM after 48 hrs by sulforhodamine B assay relative to control. In kind it is functional. Particulars: M14, 48 h, read-out: Activity.
Another experiment has as its system SR. The experiment in a line: Cytotoxicity against human SR cells assessed as cell growth at 1 uM after 48 hrs by sulforhodamine B assay relative to control. Particulars: read-out: Activity. In kind it is functional.
The test system of a further experiment is NCI-H522. The experiment in a line: Cytotoxicity against human NCI-H522 cells assessed as cell growth at 100 uM after 48 hrs by sulforhodamine B assay relative to control. The format is functional. Particulars: NCI-H522, 48 h, read-out: Activity.
The subject of experiment [7] is MDA-MB-231. The experiment in a line: Cytotoxicity against human MDA-MB-231 cells assessed as cell growth at 0.1 uM after 48 hrs by sulforhodamine B assay relative to control. In kind it is functional. Particulars: MDA-MB-231, 48 h, read-out: Activity.
In the next experiment the test system is OVCAR-8. The experiment in a line: Cytotoxicity against human OVCAR8 cells assessed as cell growth at 100 uM after 48 hrs by sulforhodamine B assay relative to control. Particulars: OVCAR-8, 48 h, read-out: Activity. The format is functional.
In the next experiment the test system is SNB-19. The experiment in a line: Cytotoxicity against human SNB19 cells assessed as cell growth at 1 uM after 48 hrs by sulforhodamine B assay relative to control. The format is functional. Particulars: SNB-19, 48 h, read-out: Activity.
Experiment [8] deals with M14. The experiment in a line: Cytotoxicity against human M14 cells assessed as cell growth at 0.01 uM after 48 hrs by sulforhodamine B assay relative to control. In kind it is functional. Particulars: M14, 48 h, read-out: Activity.
For experiment [9], the system named is M14. The experiment in a line: Cytotoxicity against human M14 cells assessed as cell growth at 100 uM after 48 hrs by sulforhodamine B assay relative to control. In kind it is functional. Particulars: M14, 48 h, read-out: Activity.
A further experiment has as its system K562. The experiment in a line: Cytotoxicity against human K562 cells assessed as cell growth at 1 uM after 48 hrs by sulforhodamine B assay relative to control. The format is functional. Particulars: K562, 48 h, read-out: Activity.
For experiment [10], the system named is HCC 2998. The experiment in a line: Cytotoxicity against human HCC2998 cells assessed as cell growth at 0.1 uM after 48 hrs by sulforhodamine B assay relative to control. In kind it is functional. The note with it: HCC 2998, 48 h, read-out: Activity.
For the next experiment, the system named is COLO 205. The experiment in a line: Cytotoxicity against human COLO205 cells assessed as cell growth at 0.1 uM after 48 hrs by sulforhodamine B assay relative to control. In kind it is functional. The note with it: COLO 205, 48 h, read-out: Activity.
For experiment [11], the system named is SF-268. The experiment in a line: Cytotoxicity against human SF268 cells assessed as cell growth at 10 uM after 48 hrs by sulforhodamine B assay relative to control. In kind it is functional. The note with it: SF-268, 48 h, read-out: Activity.
The subject of another experiment is T47D. The experiment in a line: Cytotoxicity against human T47D cells assessed as cell growth at 100 uM after 48 hrs by sulforhodamine B assay relative to control. The format is functional. The note with it: read-out: Activity.

In the case of `COc1ccc(-c2cc(/C=C/C(=O)c3ccc4c(c3)OCO4)[nH]n2)cc1OC`, the concentration for 50% growth inhibition (GI50) in the experiment with HCT-15 came out at 1090 nM; with NCI-H322M, 2670 nM; in the experiment with HCC 2998 [1], 1740 nM; in the experiment on MDA-MB-435, 1720 nM; with SW-620, 1500 nM. In addition, the IC50 in the experiment on MDA-MB-231 [2] was 2300 nM.
`COc1ccc(C(=O)/C=C/c2cc(-c3ccc(OC)c(OC)c3)n[nH]2)cc1OC`: the growth at 10 µM was -97% in the experiment with SK-MEL-5; 5% in the experiment with MOLT-4; 4% in the experiment with HL-60(TB); -7% in the experiment on OVCAR-4; -84% in the experiment with RXF 393; -1% with SF-268 [11]. Moreover, the GI50 came to 1090 nM in the experiment on HCT-15; 2670 nM with NCI-H322M; 1740 nM with HCC 2998 [1]; 1720 nM in the experiment with MDA-MB-435; 1500 nM in the experiment with SW-620. In addition, the TGI with HCT-15 amounted to 5390 nM; in the experiment on NCI-H322M, 8230 nM; with HCC 2998 [1], 3190 nM; in the experiment on SW-620, 5410 nM. Moreover, the growth at 100 µM in the experiment with TK-10 is -12%; in the experiment on OVCAR-5, -41%; with 786-0, -32%; in the experiment with KM12, -74%; in the experiment with NCI-H23 [4] it was -21%; in the experiment with NCI-H522 it was -75%. In addition, the growth at 100 µM was -15% in the experiment with OVCAR-8, -51% with M14 [9] and -9% in the experiment with T47D. For the same compound, the CC50 in the experiment with NCI-H322M (read-out: LC50 (the source's name)) was greater than 100000 nM. Also, the growth at 1 µM in the experiment with SK-OV-3 stood at 90%; with Malme-3M, 104%; in the experiment with NCI-H23 [3] it was 94%; with SR, 5%; in the experiment on SNB-19, 78%; with K562 it was 38%. Further, in the experiment with MDA-MB-231 [2], the concentration for half-maximal inhibition (IC50) was 1100 nM. Further, the growth at 0.1 µM with SF-268 [5] amounted to 95%; in the experiment with M14 [6] it was 94%; in the experiment with MDA-MB-231 [7], 99%; in the experiment with HCC 2998 [10] it was 101%; in the experiment on COLO 205, 98%. Further, the growth at 0.01 µM in the experiment with M14 [8] stood at 89%.
